Like-named read-outs stand apart in the source and are kept apart here.
What was measured:
[1] = molecular target: Lucilia cuprina LcαE7 (esterase E3) gene product, malathion resistant allele, Trp to Leu at position 251 (Lucilia cuprina, UniProt Q25252, W251L); assay: chlorfenvinphos hydrolysis, expressed malathion resistant LcαE7 product; type: biochemical; conditions: 75 μM CVP
Experimental: The malathion resistant Lcα7 full-length cDNA was cloned into the baculovirus transfer vector, Bacpac 6 (Clonetech) 3′ of the polyhedrin promoter. Transfections were conducted using a lipofection method with DOTAP (Boehringer Mannheim) as per King and Possee (The Baculovirus Expression System: A Laboratory Guide, Chapman & Hall, London, 1992). One μg of DNA of each of the resulting constructs together with 200 ng of Bacpac 6 baculovirus DNA (Clonetech), linearised by digestion with the restriction enzyme BSU 36I (Promega), was incubated in a solution of HBS (hepes buffered saline) containing 15% DOTAP (Boehringer Mannheim) in a polystyrene container at room temperature for 10 minutes. The solution was then used to transfect a single well of a six well tissue culture plate pre-seeded 2 hrs previously with 10^4 Sf9 (Spodoptera frugiperda) cells in 1.5 mls Grace's medium (King and Possee, The Baculovirus Expression System: A Laboratory Guide, Chapman & Hall, London, 1992). After 12 hours, the medium was replaced with 3 mls of Grace's medium containing 10% fetal calf serum. Construct plus DOTAP, linearised virus plus DOTAP and DOTAP only controls were conducted in parallel with transfections. The transfections were harvested 4–5 days after infection and the cells isolated by centrifugation at 500 g for 5 minutes. […]

[2] = system: Lucilia cuprina LcαE7 (esterase E3) gene product, OP-susceptible allele (LS2); conditions: described in PCT/AU 95/00016; cited from earlier work
[3] = molecular target: T1, Lucilia cuprina LcαE7 (esterase E3) gene product, malathion resistant allele (strain RM-8), Trp to Leu at position 251 (Lucilia cuprina, UniProt Q25252, W251L); assay: sensitivity of MCE activity to TPP, expressed malathion resistant LcαE7 product; type: biochemical; conditions: TPP 8×10^−8M, preincubation 15, 30 or 45 minutes
[4] = system: MCE activity associated with malathion resistance in M. domestica, C. putoria and L. cuprina; conditions: literature; cited from earlier work
[5] = system: MCE encoded by the malathion resistant allele of LcαE7; assay: Sensitivity of MCE activity to TPP (titration/preincubation of cell extract); type: biochemical, L. cuprina
[6] = system: malathion resistant strains of M. domestica, C. putoria and L. cuprina; conditions: literature, cited from earlier work
[7] = system: malathion carboxylesterase (MCE) purified from malathion resistant strains of L. cuprina; conditions: cited from earlier work
[8] = molecular target: T1, Lucilia cuprina LcαE7 (esterase E3) gene product, malathion resistant allele (strain RM-8), Trp to Leu at position 251; assay: malathion hydrolysis (MCE activity), expressed malathion resistant LcαE7 product; type: biochemical; conditions: malathion 2.5-100 μM, 25° C., pH 7.0
[9] = molecular target: Lucilia cuprina LcαE7 (esterase E3) gene product, malathion susceptible allele (strain LS2; clone Lc743), Trp at position 251 (Lucilia cuprina, UniProt Q25252); assay: malathion hydrolysis (MCE activity), expressed malathion susceptible LcαE7 product; type: biochemical; conditions: malathion 2.5-100 μM, 25° C., pH 7.0
[10] = system: malathion carboxylesterase (MCE) purified from malathion resistant strains of L. cuprina; conditions: purified MCE (Whyard and Walker 1994); cited from earlier work
[11] = system: malathion carboxylesterase (MCE) purified from malathion resistant strains of L. cuprina; conditions: purified MCE (Whyard and Walker 1994); cited from earlier work; remark: listed apart in the source
CC(=O)Oc1cccc2ccccc12 = assay: α-naphthyl acetate hydrolysis, expressed malathion resistant LcαE7 product; type: biochemical, Lucilia cuprina; conditions: other: α-NA 6-200 μM, 25° C., pH 8.0
Experimental: (§1) The malathion resistant Lcα7 full-length cDNA was cloned into the baculovirus transfer vector, Bacpac 6 (Clonetech) 3′ of the polyhedrin promoter. Transfections were conducted using a lipofection method with DOTAP (Boehringer Mannheim) as per King and Possee (The Baculovirus Expression System: A Laboratory Guide, Chapman & Hall, London, 1992). One μg of DNA of each of the resulting constructs together with 200 ng of Bacpac 6 baculovirus DNA (Clonetech), linearised by digestion with the restriction enzyme BSU 36I (Promega), was incubated in a solution of HBS (hepes buffered saline) containing 15% DOTAP (Boehringer Mannheim) in a polystyrene container at room temperature for 10 minutes. […]
(§2) The initial rates of reactions between cell extracts containing the expressed products of the malathion resistant and susceptible LcαE7 alleles and α-naphthyl acetate (α-NA) were determined at 25° C. using a recording spectrophotometer and the method of Mastrapaolo and Yourno (Analytical Biochemistry 115: 188, 1981). 6–200 μM α-NA dissolved in 10 μl of 2-methoxyethanol was added to 0.1 M Tris-HCl pH 8.0 (980 μl) in a quartz cuvette. α-Naphthyl acetate is slowly hydrolysed in water so a background rate was recorded before starting the enzymic reaction by the addition of 10 μl of diluted cell extract. […]
(§3) Km and Vmax were calculated for both enzymes. […]

CCCC(=O)Oc1cccc2ccccc12 = assay: α-naphthyl butyrate hydrolysis, expressed malathion resistant LcαE7 product; type: biochemical, Lucilia cuprina; conditions: other: α-NB 6-200 μM, 25° C., pH 8.0
Experimental: as §1, §2, §3

[12] = purified MCE (Whyard et al. 1994)

Chain of Lucilia cuprina LcαE7 (esterase E3) gene product, malathion susceptible allele (strain LS2; clone Lc743), Trp at position 251 (Q25252 entry or part of it): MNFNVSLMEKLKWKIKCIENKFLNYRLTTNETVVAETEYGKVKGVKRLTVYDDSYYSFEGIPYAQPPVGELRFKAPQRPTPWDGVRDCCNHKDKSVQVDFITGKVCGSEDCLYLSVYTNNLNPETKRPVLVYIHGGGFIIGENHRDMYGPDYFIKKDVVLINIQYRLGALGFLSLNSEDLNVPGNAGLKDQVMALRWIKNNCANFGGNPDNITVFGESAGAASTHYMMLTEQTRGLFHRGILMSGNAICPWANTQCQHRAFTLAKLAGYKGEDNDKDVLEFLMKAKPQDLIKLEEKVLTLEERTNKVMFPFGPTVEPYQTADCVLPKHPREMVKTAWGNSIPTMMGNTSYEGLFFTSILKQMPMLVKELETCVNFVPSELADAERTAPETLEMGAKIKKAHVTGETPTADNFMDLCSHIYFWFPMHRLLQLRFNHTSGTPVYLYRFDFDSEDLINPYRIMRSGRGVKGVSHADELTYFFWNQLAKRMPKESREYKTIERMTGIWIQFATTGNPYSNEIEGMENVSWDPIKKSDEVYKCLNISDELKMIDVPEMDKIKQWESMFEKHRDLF

For `CCOP(=O)(OCC)OC(=CCl)c1ccc(Cl)cc1Cl` [CVP, chlorfenvinphos], the “turnover, fold less than that of the diazinon resistant (RM2-6) gene product” value [1] is given as “approximately 50 fold”, the “turnover (hydrolytic activity)” value ([1]; 30° C., pH 7.0) is given as “about 1.2 hour^−1” and the “CVP / diethyl OP hydrolytic activity” value [2] is given as “undetectable”.

In the case of `O=P(Oc1ccccc1)(Oc1ccccc1)Oc1ccccc1` [TPP, triphenylphosphate], the “residual MCE activity at different preincubation times / completeness of inhibition by TPP” value [3] is given as “no significant difference between the residual MCE activity at each of the preincubation times”, the “turnover of TPP by MCE” value [3] is given as “TPP was not being turned over by MCE” and the “sensitivity of MCE activity to inhibition by TPP” value [4] is given as “High sensitivity to inhibition by TPP”. The “turnover of TPP by MCE” value ([5]; TPP 8×10^−8M preincubated 15, 30 or 45 minutes with cell extract) was “not being turned over”, the “concentration giving stoichiometric inhibition of MCE activity” value ([5]; expressed product of malathion resistant LcαE7 allele, substrate malathion) was “below 10^−7 M” and the synergism of malathion ([6]; listed as triphenylphosphate) was “best synergists”. The synergism of malathion [6] was “potent synergism of malathion by TPP”.

For `CCOC(=O)CC(SP(=S)(OC)OC)C(=O)OCC` (centres unmarked) [malathion, S-1,2-bis(ethoxycarbonyl)ethyl O,O-dimethyl phosphorodithioate], the Kcat ([7]; purified MCE (Whyard and Walker 1994)) is listed as 46±2 per min, the Km [7, 12] is listed as 11 ± 0.4 µM and the Vmax [7, 12] is listed as 775±28 nmol malathion/min/mg. The “kcat (turnover number)” value [7, 12] was 0.767 s⁻¹, the Kcat [8] was 0.717 ± 0.017 s⁻¹ and the Km [8] was 21 ± 1 µM. The Kcat [9] was 1.17 ± 0.183 s⁻¹ and the Km [9] was 200 ± 30 µM.

In the case of `CC(=O)Oc1cccc2ccccc12` [α-naphthyl acetate], the Kcat [10] is given as 2063 per min and the Km [10] is given as 167 ± 14 µM.

In the case of `CCCC(=O)Oc1cccc2ccccc12` [α-naphthyl butyrate], the Kcat [11] is given as 3700 per min and the Km [11] is given as 39 ± 4 µM.

Molecule “Lucilia cuprina LcαE7 (esterase E3) gene product, malathion resistant allele (strain RM-8), Trp to Leu at position 251 (Lucilia cuprina; W251L)” has a Km (CC(=O)Oc1cccc2ccccc12) of 150 ± 50 µM, a kcat (CC(=O)Oc1cccc2ccccc12) of 37.8 ± 0.5 s⁻¹ and a Km (CCCC(=O)Oc1cccc2ccccc12) of 29 ± 4 µM. The kcat (CCCC(=O)Oc1cccc2ccccc12) was 150 ± 6.67 s⁻¹.

Reference: patent US7091025B2, “Malathion carboxylesterase” (priority 1995, dated 2006)
